The test concerns the target T1, human CXCR3 (N-delta 4) (Homo sapiens, UniProt P49682).
T1 construct: CD8 leader; Flag tag; expressed in transfected cells; membranes used
T1 sequence (P49682 5-368 limits assumed): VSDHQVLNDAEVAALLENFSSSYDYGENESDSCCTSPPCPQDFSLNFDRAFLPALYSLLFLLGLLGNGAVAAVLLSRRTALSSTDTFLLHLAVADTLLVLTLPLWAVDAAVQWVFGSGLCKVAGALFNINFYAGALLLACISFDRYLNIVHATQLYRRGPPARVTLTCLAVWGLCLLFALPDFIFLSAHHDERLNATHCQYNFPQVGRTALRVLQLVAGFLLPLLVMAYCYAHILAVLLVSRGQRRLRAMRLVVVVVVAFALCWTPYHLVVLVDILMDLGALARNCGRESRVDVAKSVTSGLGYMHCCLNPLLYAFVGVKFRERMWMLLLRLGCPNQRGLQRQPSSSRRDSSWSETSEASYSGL
Put plainly: Human CXCR3 (N-delta 4) scintillation proximity assay (SPA), [125I] IP-10 binding. To be noted: IC50 rating; Ba/F3-hCXCR3 (N-delta 4) membranes, 25 pM [125I] IP-10. The method in brief: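 Membranes from mouse Ba/F3 pro-B cells stably expressing Flag-tagged human CXCR3 (N-delta 4) were coupled to SPA beads. IP-10 was added together with titrated compounds to start the reaction, and bound radioligand was read by scintillation proximity.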
(In a scintillation proximity assay essentially only radioactivity close to the scintillant gives light.)
As a reminder, the IC50 is the concentration that inhibits the measured activity by half. `N#Cc1ccc(CN2CCC(N3CCN(c4ncc(C(=O)NCc5ccc(C(F)(F)F)cc5)cc4Br)CC3)CC2)cc1` [compound 324] registered an IC50 of 25 to 100 nM. The result for `O=C(NCc1ccc(C(F)(F)F)cc1)c1cnc(N2CCN(C3CCN(Cc4ccc(Br)cc4)CC3)CC2)c(Br)c1` [compound 325] reads more than 100 nM. The result for `CCNC(=O)c1cnc(N2CCN(C3CCN(C(C)(C)c4ccc(Cl)cc4)CC3)[C@@H](C)C2)c(Cl)c1` [compound 326] reads more than 100 nM; that for `C[C@H]1CN(c2ncc(C(=O)NCc3ccc(F)c(F)c3)cc2Cl)CCN1C1CCN(CCC(=O)c2ccc(Cl)cc2)CC1` [compound 327], more than 100 nM. The result for `CNC(=O)c1cnc(N2CCN(C3CCN([C@@H](C)c4ccc(Cl)cc4)CC3)[C@@H](C)C2)c(Cl)c1` [compound 328] reads more than 100 nM; that for `N#Cc1ccc(C(=O)N2CCC(N3CCN(c4ncc(C(=O)NCCOc5ccccc5)cc4Br)CC3)CC2)cc1` [compound 329], more than 100 nM.

In turn, `CCNC(=O)c1cnc(N2CCN(C3CCN([C@H](CC)c4ccc(Cl)cc4)CC3)[C@@H](C)C2)c(Cl)c1` [compound 330] yielded a concentration for half-maximal inhibition (IC50) of more than 100 nM. The result for `COc1ccc(CN2CCC(N3CCN(c4ncc(C(=O)NCCOc5ccccc5)cc4Cl)CC3)CC2)cc1` [compound 331] reads more than 100 nM. With `CC[C@H]1CN(c2ncc(C(N)=O)cc2Cl)CCN1C1CCN(C(=O)c2ccc(Cl)cc2)CC1` [compound 332] the figure was more than 100 nM. With `CNC(=O)c1cnc(N2CCN(C3CCN(Cc4ccc(Cl)nc4)CC3)[C@@H](C)C2)c(Cl)c1` [compound 333] the figure was more than 100 nM. On to `CNC(=O)c1cnc(N2CCN(C3CCN(Cc4cccc(C)c4)CC3)[C@@H](C)C2)c(Cl)c1` [compound 334], for which the IC50 is more than 100 nM. The compound `C[C@H]1CN(c2ncc(C(=O)NCC3CCCCC3)cc2Cl)CCN1C1CCN(C(=O)c2ccc(C#N)cc2)CC1` [compound 335] showed an IC50 of more than 100 nM. In turn, `N#Cc1ccc(CN2CCC(N3CCN(c4ncc(C(=O)NCc5ccc(C(F)(F)F)cc5)cc4Cl)CC3)CC2)cc1` [compound 336] had an IC50 of more than 100 nM. The compound `CNC(=O)c1cnc(N2CCN(C3CCN(C(=O)c4ccc(Cl)cc4)CC3)[C@@H](C)C2)c(Cl)c1` [compound 337] yielded an IC50 of more than 100 nM. `N#Cc1ccc(CN2CCC(N3CCN(c4ncc(C(=O)NCCOc5ccccc5)cc4Cl)CC3)CC2)cc1` [compound 338] yielded an IC50 of more than 100 nM. On to `CCNC(=O)c1cnc(N2CCN(C3CCN(C(CC)c4ccc(Cl)cc4)CC3)[C@@H](C)C2)c(Cl)c1` (some centres unmarked) [compound 339], for which the IC50 was more than 100 nM.

On to `CCOC(CNC(=O)c1cnc(N2CCN(C3CCN(Cc4ccc(Cl)cc4)CC3)[C@@H](C)C2)c(Cl)c1)OCC` [compound 340], for which the IC50 is more than 100 nM.

The compound `CNC(=O)c1cnc(N2CCN(C3CCN(Cc4c(F)cc(F)cc4F)CC3)[C@@H](C)C2)c(Cl)c1` [compound 341] returned an IC50 of more than 100 nM. `CC[C@H]1CN(c2ncc(C(=O)NN)cc2Cl)CCN1C1CCN(C(=O)c2ccc(Br)cc2)CC1` [compound 342] displayed an IC50 of more than 100 nM.

For the compound `CC[C@H]1CN(c2ncc(C(=O)N(C)OC)cc2Cl)CCN1C1CCN(Cc2ccc(Cl)cc2F)CC1` [compound 343], the half-maximal inhibitory concentration (IC50) was more than 100 nM.

The compound `CCNC(=O)c1cnc(N2CCN(C3CCN([C@@H](CC)c4ccc(Cl)cc4)CC3)[C@@H](C)C2)c(Cl)c1` [compound 344] gave an IC50 of more than 100 nM. `COc1ccc(CNC(=O)c2cnc(N3CCN(C4CCN(Cc5ccc(C#N)cc5)CC4)CC3)c(Cl)c2)cc1` [compound 345] had an IC50 of more than 100 nM. `O=C(NCc1ccc(F)c(F)c1)c1cnc(N2CCN(C3CCN(CCOc4ccc(F)cc4)CC3)CC2)c(Cl)c1` [compound 346] yielded an IC50 of more than 100 nM. Compound `CC[C@H]1CN(c2ncc(C(=O)NNC(N)=O)cc2Cl)CCN1C1CCN(Cc2ccc(Cl)cc2F)CC1` [compound 347] returned an IC50 of more than 100 nM. For the compound `C[C@H]1CN(c2ncc(C(=O)N3CCC3)cc2Cl)CCN1C1CCN(Cc2ccc(Cl)cc2)CC1` [compound 348], the concentration for half-maximal inhibition (IC50) is more than 100 nM.

As to `CNC(=O)c1cnc(N2CCN(C3CCN(Cc4ccccc4Cl)CC3)[C@@H](C)C2)c(Cl)c1` [compound 349], the IC50 was more than 100 nM. The result for `CC[C@H]1CN(c2ncc(C(=O)N=C(N)N)cc2Cl)CCN1C1CCN(Cc2ccc(Br)cc2F)CC1` [compound 350] reads more than 100 nM; that for `O=C(NCc1ccc(F)c(F)c1)c1cnc(N2CCN(C3CCN(C(=O)c4ccc(Cl)c(Cl)c4)CC3)CC2)c(Cl)c1` [compound 351], more than 100 nM; that for `CNC(=O)c1cnc(N2C[C@H](C)N(C3CCN(Cc4ccc(Cl)cc4F)CC3)C[C@H]2C)c(Cl)c1` [compound 352], more than 100 nM. `O=C(Nc1ccc(Cl)cn1)c1cnc(N2CCN(C3CCN(Cc4ccc(Cl)cc4)CC3)CC2)c(Cl)c1` [compound 353]: the half-maximal inhibitory concentration (IC50) was more than 100 nM. Regarding `CNC(=O)c1cnc(N2CCN(C3CCN(Cc4ccc(F)cc4S(=O)(=O)N(C)c4ccc(Cl)cc4)CC3)[C@@H](C)C2)c(Cl)c1` [compound 354], the IC50 was more than 100 nM.

For `C[C@H]1CN(c2ncc(C(=O)N3CCCCC3)cc2Cl)CCN1C1CCN(Cc2ccc(Cl)cc2)CC1` [compound 355], the IC50 is more than 100 nM.

For `CC[C@H]1CN(c2ncc(C(=O)NC)cc2Cl)CCN1C1CCN(C2c3ccc(Cl)cc3CCc3cccnc32)CC1` (some centres unmarked) [compound 356], the half-inhibitory concentration (IC50) was more than 100 nM.

`C=CCNc1c(C(N)=O)cnc(N2CCN(C3CCN(Cc4ccc(Cl)cc4F)CC3)[C@@H](CC)C2)c1Cl` [compound 357] gave an IC50 of more than 100 nM. For the compound `O=C(NCc1cccnc1)c1cnc(N2CCN(C3CCN(Cc4ccc(Cl)cc4)CC3)CC2)c(Cl)c1` [compound 358], the IC50 was more than 100 nM. The result for `CNC(=O)c1cnc(N2CCN(C3CCN(/C(=N\C#N)c4ccc(Cl)cc4)CC3)[C@@H](C)C2)c(Cl)c1` [compound 359] reads more than 100 nM; that for `CNC(=O)c1cnc(N2CCN(C3CCN(Cc4c(C)cccc4C)CC3)[C@@H](C)C2)c(Cl)c1` [compound 360], more than 100 nM. `CNC(=O)c1cnc(N2CCN(C3CCN(C(=O)c4cc5cc(Cl)ccc5[nH]4)CC3)[C@@H](C)C2)c(Cl)c1` [compound 361] yielded an IC50 of more than 100 nM. The result for `O=C(NCc1ccc(F)c(F)c1)c1cnc(N2CCN(C3CCN(Cc4ccccc4)CC3)CC2)c(Cl)c1` [compound 362] reads more than 100 nM; that for `CC[C@H]1CN(c2ncc(C(=O)NC)c3ccccc23)CCN1C1CCN(Cc2ccc(Cl)cc2F)CC1` [compound 363], more than 100 nM. `O=C(NCCc1c[nH]c2ccccc12)c1cnc(N2CCN(C3CCN(Cc4ccc(Cl)cc4)CC3)CC2)c(Cl)c1` [compound 364]: the IC50 was more than 100 nM. The result for `CC[C@H]1CN(c2ncc(C(=O)NCc3ccc(F)c(F)c3)cc2Cl)CCN1C1CCN(C)CC1` [compound 365] reads more than 100 nM. The result for `CNC(=O)c1cnc(N2CCN(C3CCN(Cc4c(F)cccc4F)CC3)[C@@H](C)C2)c(Cl)c1` [compound 366] reads more than 100 nM; that for `CC[C@H]1CN(c2ncc(CNC(=O)NC3CC3)cc2Cl)CCN1C1CCN(Cc2ccc(Br)cc2F)CC1` [compound 367], less than 25 nM; that for `CCNC(=O)NCc1cnc(N2CCN(C3CCN(Cc4ccc(Cl)cc4F)CC3)[C@@H](CC)C2)c(Cl)c1` [compound 368], less than 25 nM. `CC[C@H]1CN(c2ncc(CNC(=O)NCC(F)(F)F)cc2Cl)CCN1C1CCN(Cc2ccc(Cl)cc2F)CC1` [compound 369]: the IC50 is less than 25 nM. `CC[C@H]1CN(c2ncc(CNC(=O)NC(C)C)cc2Cl)CCN1C1CCN(Cc2ccc(Cl)cc2F)CC1` [compound 370] returned an IC50 of less than 25 nM. As for `CC[C@H]1CN(c2ncc(CNC(=O)NCC(F)(F)F)cc2Cl)CCN1C1CCN(Cc2ccc(Br)cc2F)CC1` [compound 371], the IC50 was less than 25 nM. With `CC[C@H]1CN(c2ncc(CNC(=O)NC3CC3)cc2Cl)CCN1C1CCN(Cc2ccc(Cl)cc2F)CC1` [compound 372] the figure was less than 25 nM; with `CC[C@H]1CN(c2ncc(CNC(=O)NC(C)(C)C)cc2Cl)CCN1C1CCN(Cc2ccc(Cl)cc2F)CC1` [compound 373], less than 25 nM; with `CC[C@H]1CN(c2ncc(CNC(=S)NC3CC3)cc2Cl)CCN1C1CCN(Cc2ccc(Cl)cc2F)CC1` [compound 374], less than 25 nM. With `CC[C@H]1CN(c2ncc(CO)cc2Cl)CCN1C1CCN(Cc2ccc(Br)cc2)CC1` [compound 375] the figure was less than 25 nM; with `CC[C@H]1CN(c2ncc(CNC(N)=O)cc2Cl)CCN1C1CCN(Cc2ccc(Br)cc2F)CC1` [compound 376], less than 25 nM.

For the compound `CC[C@H]1CN(c2ncc(CNC(=O)NC)cc2Cl)CCN1C1CCN(Cc2ccc(Cl)cc2F)CC1` [compound 377], the IC50 was less than 25 nM.

The compound `CC[C@H]1CN(c2ncc(CNS(C)(=O)=O)cc2Cl)CCN1C1CCN(Cc2ccc(Br)cc2F)CC1` [compound 378] came in with an IC50 of less than 25 nM.

`CC[C@H]1CN(c2ncc(CNC(N)=O)cc2Cl)CCN1C1CCN(Cc2ccc(Cl)cc2F)CC1` [compound 379] had an IC50 of less than 25 nM. `CC[C@H]1CN(c2ncc(CNS(C)(=O)=O)cc2Cl)CCN1C1CCN(Cc2ccc(Cl)cc2F)CC1` [compound 380] showed an IC50 of less than 25 nM.

`CC[C@H]1CN(c2ncc(CN/C(=N\C#N)NCC(F)(F)F)cc2Cl)CCN1C1CCN(Cc2ccc(Cl)cc2F)CC1` [compound 381] showed a 50% inhibitory concentration (IC50) of less than 25 nM. The result for `CCNC(=O)OCc1cnc(N2CCN(C3CCN(Cc4ccc(Cl)cc4F)CC3)[C@@H](CC)C2)c(Cl)c1` [compound 382] reads less than 25 nM.
